Where “and” joins values, the source holds several entries; their conditions need not be identical. Equal values may be shown once. Entries after “also recorded” stand apart in the source; their conditions may differ. Read-outs that look alike come from different tables or passages of the source.
Key:
SERT WT [1] = molecular target: T1, SERT WT (Homo sapiens, UniProt P31645)
SERT WT [2] = molecular target: T1, SERT WT; conditions: Log[VLZ] (M) -4; ctrl = 1; replicates
SERT = molecular target: T2, SERT (Homo sapiens, UniProt P31645); experiment: [3H]IMI dissociation from SERT by VLZ in absence or presence of 10 µM Fab fragment; assay type: binding; conditions: for Fab fragment VLZ allostery w [3H]IMI Dissoc (Suppl. Fig 3A): ctrl = 1
T2 construct: expressed in transfected cells; host or cells: membranes of COS-7 cells, transient transfection

SERT S438T = SERT S438T (Homo sapiens, UniProt P31645, S438T)
SERT Y95F = SERT Y95F (Homo sapiens, UniProt P31645, Y95F)
SERT WT [3] = molecular target: T1, SERT WT; experiment: [3H]IMI dissociation rate assay (allosteric potency), COS-7 membranes; assay type: binding; set-up: expressed in transfected cells; host or cells: COS-7;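 note: radioligand pre-bound 30 min at room temperature to equilibrium, then dissociation followed over 5–70 min, ended by filtration through GF/B filters, at least three independent experiments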

T2 sequence (P31645 whole entry, the tested form may be a part): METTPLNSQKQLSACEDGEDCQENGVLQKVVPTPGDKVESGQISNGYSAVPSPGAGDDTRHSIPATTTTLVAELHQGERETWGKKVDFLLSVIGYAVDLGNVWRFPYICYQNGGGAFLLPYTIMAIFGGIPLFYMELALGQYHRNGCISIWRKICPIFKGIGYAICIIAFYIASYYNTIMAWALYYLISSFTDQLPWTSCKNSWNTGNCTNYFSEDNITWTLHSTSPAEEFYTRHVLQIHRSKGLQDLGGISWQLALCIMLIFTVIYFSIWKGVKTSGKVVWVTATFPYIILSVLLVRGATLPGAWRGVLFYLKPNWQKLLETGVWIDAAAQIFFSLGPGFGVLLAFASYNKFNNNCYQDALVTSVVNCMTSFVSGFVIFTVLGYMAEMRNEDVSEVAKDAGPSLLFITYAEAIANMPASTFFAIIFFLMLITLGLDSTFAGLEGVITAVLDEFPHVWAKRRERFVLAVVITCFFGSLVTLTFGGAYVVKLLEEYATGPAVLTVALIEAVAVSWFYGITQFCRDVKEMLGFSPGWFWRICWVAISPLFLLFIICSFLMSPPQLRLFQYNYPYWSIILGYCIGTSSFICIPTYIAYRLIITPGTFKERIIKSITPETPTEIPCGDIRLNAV
T1 sequence (P31645 whole entry): as the sequence (P31645 whole entry, the tested form may be a part) above
SERT S438T, sequence (P31645 whole entry S438T): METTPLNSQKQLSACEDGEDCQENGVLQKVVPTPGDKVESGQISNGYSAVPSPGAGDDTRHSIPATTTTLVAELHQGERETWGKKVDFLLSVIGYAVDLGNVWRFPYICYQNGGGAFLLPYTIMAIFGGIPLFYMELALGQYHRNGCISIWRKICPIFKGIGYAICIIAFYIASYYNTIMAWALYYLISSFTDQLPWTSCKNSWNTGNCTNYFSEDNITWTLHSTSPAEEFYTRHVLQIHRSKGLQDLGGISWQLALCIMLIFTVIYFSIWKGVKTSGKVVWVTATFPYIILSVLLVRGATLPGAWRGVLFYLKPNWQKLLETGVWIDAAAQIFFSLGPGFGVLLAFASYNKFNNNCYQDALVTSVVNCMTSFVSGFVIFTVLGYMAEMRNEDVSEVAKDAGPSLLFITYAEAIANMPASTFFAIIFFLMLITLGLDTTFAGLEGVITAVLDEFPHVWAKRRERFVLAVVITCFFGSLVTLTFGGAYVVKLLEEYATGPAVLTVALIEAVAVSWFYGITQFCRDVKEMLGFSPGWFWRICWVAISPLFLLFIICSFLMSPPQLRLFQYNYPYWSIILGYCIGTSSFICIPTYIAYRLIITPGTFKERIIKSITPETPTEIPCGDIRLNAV
SERT Y95F, sequence (P31645 whole entry Y95F): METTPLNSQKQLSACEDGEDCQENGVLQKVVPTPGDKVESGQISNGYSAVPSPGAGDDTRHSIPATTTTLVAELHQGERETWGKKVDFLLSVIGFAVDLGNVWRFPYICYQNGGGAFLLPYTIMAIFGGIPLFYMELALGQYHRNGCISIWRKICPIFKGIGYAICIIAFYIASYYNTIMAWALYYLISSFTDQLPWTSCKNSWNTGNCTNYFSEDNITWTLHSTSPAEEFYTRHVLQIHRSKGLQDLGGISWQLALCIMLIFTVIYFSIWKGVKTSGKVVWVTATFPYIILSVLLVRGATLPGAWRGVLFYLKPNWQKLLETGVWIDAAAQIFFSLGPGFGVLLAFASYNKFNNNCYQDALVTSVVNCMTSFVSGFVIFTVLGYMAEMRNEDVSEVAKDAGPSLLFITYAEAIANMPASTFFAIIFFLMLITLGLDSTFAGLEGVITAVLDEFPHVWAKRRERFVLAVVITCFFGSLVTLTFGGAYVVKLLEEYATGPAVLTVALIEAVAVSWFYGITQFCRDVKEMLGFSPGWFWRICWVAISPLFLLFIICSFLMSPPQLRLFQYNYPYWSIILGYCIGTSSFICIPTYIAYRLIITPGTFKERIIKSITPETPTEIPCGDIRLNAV

`N#Cc1ccc2[nH]cc(CCCCN3CCN(c4ccc5oc(C(N)=O)cc5c4)CC3)c2c1` [VLZ, Vilazodone] was tested, and the “[3H]S-CIT binding inhibition” value (SERT WT [1]; Log[VLZ] (M) -6) was 6.1374 and 6.267 and 9.306 and 7.924, the “[3H]S-CIT binding inhibition” value (SERT WT [1]; Log[VLZ] (M) -7) was 15.0029 and 12.5666 and 12.6935 and 13.2177 and 16.0372 and 22.3569 and the “[3H]S-CIT binding inhibition” value (SERT WT [1]; Log[VLZ] (M) -8) was 20.242 and 17.0122 and 17.5714 and 27.4498 and 22.8662. The “[3H]S-CIT binding inhibition” value (SERT WT [1]; Log[VLZ] (M) -9.5) was 93.155 and 87.0219 and 91.9361 and 94.5429, the “[3H]S-CIT binding inhibition” value (SERT WT [1]; Log[VLZ] (M) -10) was 90.7785 and 92.3382 and 88.1671 and 94.4965 and the “[3H]S-CIT binding inhibition” value (SERT WT [1]; Log[VLZ] (M) -11) was 106.327 and 106.337 and 110.336 and 113.218 and 118.473 and 111.36. The “[3H]S-CIT binding inhibition” value (SERT WT [1]; Log[VLZ] (M) -12) was 92.524 and 93.4609 and 92.9453 and 86.9585 and 90.0353, the “VLZ Allosteric Potency SERT WT, [3H]S-CIT dissociation (Fig. 2C)” value (SERT WT [2]) was 0 and the “Effect of Fab fragment on allosteric potency of VLZ ([3H]IMI dissociation)” value (SERT; 10 µM Fab, n = 1) was “no apparent effect; also recorded: unaffected”. The “Fab fragment VLZ allostery w [3H]IMI Dissoc (Suppl. Fig 3A)” value (shortened to “Fab fragment VLZ allostery w”) (SERT; SERT WT, Log[VLZ] (M) -6) was 0, the “Fab fragment VLZ allostery w” value (SERT; SERT WT, Log[VLZ] (M) -7.34) was 0.0851 and the “Fab fragment VLZ allostery w” value (SERT; SERT WT, Log[VLZ] (M) -7.817) was 0.2902. For the same molecule, the “Fab fragment VLZ allostery w” value (SERT; SERT WT, Log[VLZ] (M) -8.294) was 0.4378, the “Fab fragment VLZ allostery w” value (SERT; w. Fab fragment, Log[VLZ] (M) -6) was 0 and the “Fab fragment VLZ allostery w” value (SERT; w. Fab fragment, Log[VLZ] (M) -7.34) was 0.077. For the same molecule, the “Fab fragment VLZ allostery w” value (SERT; w. Fab fragment, Log[VLZ] (M) -7.817) was 0.2744, the “Fab fragment VLZ allostery w” value (SERT; w. Fab fragment, Log[VLZ] (M) -8.294) was 0.5049 and the “[3H]5-HT uptake inhibition S1 Mutants” value (SERT S438T; Log[VLZ] (M) -8) was 14.775 and 11.8665 and 12.0164 and 12.3243. The “[3H]5-HT uptake inhibition S1 Mutants” value (SERT S438T; Log[VLZ] (M) -8.5) was 41.3444 and 41.8738 and 54.9583 and 30.416, the “[3H]5-HT uptake inhibition S1 Mutants” value (SERT S438T; Log[VLZ] (M) -9) was 69.6167 and 63.3209 and 84.8416 and 54.068 and the “[3H]5-HT uptake inhibition S1 Mutants” value (SERT S438T; Log[VLZ] (M) -9.5) was 80.1053. For the same molecule, the “[3H]5-HT uptake inhibition S1 Mutants” value (SERT S438T; Log[VLZ] (M) -10) was 87.6994 and 103.115 and 83.4593, the “[3H]5-HT uptake inhibition S1 Mutants” value (SERT S438T; Log[VLZ] (M) -10.5) was 92.1556 and 93.2014 and 102.815 and 97.2843 and the “[3H]5-HT uptake inhibition S1 Mutants” value (SERT S438T; Log[VLZ] (M) -11) was 102.782 and 106.151 and 94.1598. For the same molecule, the “[3H]5-HT uptake inhibition S1 Mutants” value (SERT S438T; Log[VLZ] (M) -12) was 100.15 and 89.7676 and 98.9977, the “[3H]5-HT uptake inhibition S1 Mutants” value (SERT Y95F; Log[VLZ] (M) -7.5) was 2.147 and 2.505 and 1.589 and 2.318 and the “[3H]5-HT uptake inhibition S1 Mutants” value (SERT Y95F; Log[VLZ] (M) -8) was 11.0058 and 6.5 and 7.569. For the same molecule, the “[3H]5-HT uptake inhibition S1 Mutants” value (SERT Y95F; Log[VLZ] (M) -8.5) was 23.4424 and 34.8885 and 39.8853 and 24.3563, the “[3H]5-HT uptake inhibition S1 Mutants” value (SERT Y95F; Log[VLZ] (M) -9) was 48.3194 and 75.9314 and 68.9865 and 51.2725 and the “[3H]5-HT uptake inhibition S1 Mutants” value (SERT Y95F; Log[VLZ] (M) -9.5) was 92.5116 and 89.0566. The “[3H]5-HT uptake inhibition S1 Mutants” value (SERT Y95F; Log[VLZ] (M) -10) was 97.9526 and 106.373 and 93.3855 and 88.0755, the “[3H]5-HT uptake inhibition S1 Mutants” value (SERT Y95F; Log[VLZ] (M) -10.5) was 100.1 and 92.5093 and 97.0473 and 106.269 and the “[3H]5-HT uptake inhibition S1 Mutants” value (SERT Y95F; Log[VLZ] (M) -11) was 98.0826 and 93.7606. For the same molecule, the “[3H]5-HT uptake inhibition S1 Mutants” value (SERT Y95F; Log[VLZ] (M) -12) was 96.3138 and 97.3606 and 96.312 and 100.229, the “[3H]IMI dissociation (Fig. 2B)” value (SERT WT [3]; 0.5 nM, time 5 min) was 98.1806 and the “[3H]IMI dissociation (Fig. 2B)” value (SERT WT [3]; 0.5 nM, time 10 min) was 95.2605. For the same molecule, the “[3H]IMI dissociation (Fig. 2B)” value (SERT WT [3]; 0.5 nM, time 15 min) was 95.3158, the “[3H]IMI dissociation (Fig. 2B)” value (SERT WT [3]; 0.5 nM, time 20 min) was 91.8569 and the “[3H]IMI dissociation (Fig. 2B)” value (SERT WT [3]; 0.5 nM, time 30 min) was 86.7456. For the same molecule, the “[3H]IMI dissociation (Fig. 2B)” value (SERT WT [3]; 0.5 nM, time 50 min) was 81.092, the “[3H]IMI dissociation (Fig. 2B)” value (SERT WT [3]; 0.5 nM, time 70 min) was 71.6978 and the “[3H]IMI dissociation (Fig. 2B)” value (SERT WT [3]; 1.6 nM, time 5 min) was 98.6368. The “[3H]IMI dissociation (Fig. 2B)” value (SERT WT [3]; 1.6 nM, time 10 min) was 97.1109, the “[3H]IMI dissociation (Fig. 2B)” value (SERT WT [3]; 1.6 nM, time 15 min) was 94.6142 and the “[3H]IMI dissociation (Fig. 2B)” value (SERT WT [3]; 1.6 nM, time 20 min) was 91.8363. For the same molecule, the “[3H]IMI dissociation (Fig. 2B)” value (SERT WT [3]; 1.6 nM, time 30 min) was 88.3693, the “[3H]IMI dissociation (Fig. 2B)” value (SERT WT [3]; 1.6 nM, time 50 min) was 82.8483 and the “[3H]IMI dissociation (Fig. 2B)” value (SERT WT [3]; 1.6 nM, time 70 min) was 74.8875. For the same molecule, the “[3H]IMI dissociation (Fig. 2B)” value (SERT WT [3]; 5.0 nM, time 5 min) was 97.5709, the “[3H]IMI dissociation (Fig. 2B)” value (SERT WT [3]; 5.0 nM, time 10 min) was 97.4425 and the “[3H]IMI dissociation (Fig. 2B)” value (SERT WT [3]; 5.0 nM, time 20 min) was 93.3593. For the same molecule, the “[3H]IMI dissociation (Fig. 2B)” value (SERT WT [3]; 5.0 nM, time 30 min) was 90.4506, the “[3H]IMI dissociation (Fig. 2B)” value (SERT WT [3]; 5.0 nM, time 50 min) was 84.3631 and the “[3H]IMI dissociation (Fig. 2B)” value (SERT WT [3]; 5.0 nM, time 70 min) was 76.3943. The “[3H]IMI dissociation (Fig. 2B)” value (SERT WT [3]; 14 nM, time 5 min) was 98.3663, the “[3H]IMI dissociation (Fig. 2B)” value (SERT WT [3]; 14 nM, time 10 min) was 97.4617 and the “[3H]IMI dissociation (Fig. 2B)” value (SERT WT [3]; 14 nM, time 15 min) was 95.8874. For the same molecule, the “[3H]IMI dissociation (Fig. 2B)” value (SERT WT [3]; 14 nM, time 20 min) was 96.0081 and the “[3H]IMI dissociation (Fig. 2B)” value (SERT WT [3]; 14 nM, time 30 min) was 92.2894.

— PMC8379219 (Nature Communications, 2021)
